Measured values as given in ChEMBL document CHEMBL4811295, “The ester derivatives obtained by C-ring modification of podophyllotoxin induce apoptosis and inhibited proliferation in PC-3M cells via down-regulation of PI3K/Akt signaling pathway” (Bioorg Med Chem Lett, 2021).

Columns and labels:
Assay type in all cases: functional, cell-based
A549 = experiment: Cytotoxicity in human A549 cells assessed as inhibition of cell proliferation measured by CCK-8 assay
HepG2 = experiment: Cytotoxicity in human HepG2 cells assessed as inhibition of cell proliferation measured by CCK-8 assay
HMEC = experiment: Cytotoxicity in human HMEC cells assessed as inhibition of cell proliferation measured by CCK-8 assay
PC-3M = experiment: Cytotoxicity in human PC-3M cells assessed as inhibition of cell proliferation measured by CCK-8 assay
MCF7 = experiment: Cytotoxicity in human MCF7 cells assessed as inhibition of cell proliferation measured by CCK-8 assay

Which IC50 (A549) does the source give for `COc1cc([C@@H]2c3cc4c(cc3[C@H](OC(=O)[C@H](C)NC(=O)OC(C)(C)C)[C@H]3COC(=O)[C@H]23)OCO4)cc(OC)c1OC` here?
Its IC50 is 28.4 nM.

What about the IC50 (HepG2) of the same compound?
Its IC50 is 84900 nM.

What about the IC50 (HMEC) of the same compound?
The IC50 was 8420 nM.

And the IC50 (PC-3M)?
The IC50 was 1170 nM.

What about the IC50 (MCF7) of the same compound?
The IC50 was 40700 nM.

How did the IC50 (A549) turn out when `CCCCCCCCCCCCCCCC(=O)O[C@H]1c2cc3c(cc2[C@@H](c2cc(OC)c(OC)c(OC)c2)[C@H]2C(=O)OC[C@@H]21)OCO3` was run?
Its IC50 is 4590 nM.

And the IC50 (HepG2)?
Its IC50 is 117000 nM.

And the IC50 (HMEC)?
The IC50 was 5380 nM.

What about the IC50 (PC-3M) of the same compound?
The IC50 was 2300 nM.

And the IC50 (MCF7)?
The IC50 was > 200000 nM.

What does the source list for `CCCCCCCCCCCCCC(=O)O[C@H]1c2cc3c(cc2[C@@H](c2cc(OC)c(OC)c(OC)c2)[C@H]2C(=O)OC[C@@H]21)OCO3`?
IC50 (A549): 1070 nM; IC50 (HepG2): 88700 nM; IC50 (HMEC): 2750 nM; IC50 (PC-3M): 1720 nM; IC50 (MCF7): > 200000 nM

Which IC50 (A549) does the source give for `CC[C@H](C)[C@H](NC(=O)OC(C)(C)C)C(=O)O[C@H]1c2cc3c(cc2[C@@H](c2cc(OC)c(OC)c(OC)c2)[C@H]2C(=O)OC[C@@H]21)OCO3` here?
Its IC50 is 7960 nM.

And the IC50 (HepG2)?
Its IC50 is 866 nM.

And the IC50 (HMEC)?
The IC50 was 4480 nM.

What about the IC50 (PC-3M) of the same compound?
The IC50 was 1070 nM.

And the IC50 (MCF7)?
The IC50 was 69900 nM.

For `COc1cc([C@@H]2c3cc4c(cc3[C@H](OC(=O)c3cccs3)[C@H]3COC(=O)[C@H]23)OCO4)cc(OC)c1OC`, which IC50 (A549) is on record?
The IC50 was 68.4 nM.

And the IC50 (HepG2)?
Its IC50 is 26900 nM.

What about the IC50 (HMEC) of the same compound?
The IC50 was 672 nM.

And the IC50 (PC-3M)?
The IC50 was 770 nM.

What about the IC50 (MCF7) of the same compound?
Its IC50 is 26500 nM.

For `COc1cc([C@@H]2c3cc4c(cc3[C@H](OC(=O)[C@H](Cc3c[nH]c5ccccc35)NC(=O)OC(C)(C)C)[C@H]3COC(=O)[C@H]23)OCO4)cc(OC)c1OC`, which IC50 (A549) is on record?
The IC50 was 314 nM.

And the IC50 (HepG2)?
Its IC50 is > 200000 nM.

What about the IC50 (HMEC) of the same compound?
Its IC50 is 1800 nM.

What about the IC50 (PC-3M) of the same compound?
Its IC50 is 6.07 nM.

What about the IC50 (MCF7) of the same compound?
The IC50 was > 200000 nM.

Which IC50 (A549) does the source give for `COc1cc([C@@H]2c3cc4c(cc3[C@H](OC(=O)[C@H](Cc3ccccc3)NC(=O)OC(C)(C)C)[C@H]3COC(=O)[C@H]23)OCO4)cc(OC)c1OC` here?
The IC50 was 23.4 nM.

And the IC50 (HepG2)?
Its IC50 is > 200000 nM.

And the IC50 (HMEC)?
Its IC50 is 2460 nM.

And the IC50 (PC-3M)?
Its IC50 is 20.1 nM.

And the IC50 (MCF7)?
The IC50 was 72400 nM.

For `COc1cc([C@@H]2c3cc4c(cc3[C@H](OC(=O)[C@@H]3CCCN3C(=O)OC(C)(C)C)[C@H]3COC(=O)[C@H]23)OCO4)cc(OC)c1OC`, which IC50 (A549) is on record?
Its IC50 is 600 nM.

And the IC50 (HepG2)?
The IC50 was 50800 nM.

What about the IC50 (HMEC) of the same compound?
The IC50 was 3230 nM.

And the IC50 (PC-3M)?
Its IC50 is 1720 nM.

What about the IC50 (MCF7) of the same compound?
The IC50 was 124000 nM.

With `COc1cc([C@@H]2c3cc4c(cc3[C@H](OC(=O)[C@@H](NC(=O)OC(C)(C)C)C(C)C)[C@H]3COC(=O)[C@H]23)OCO4)cc(OC)c1OC` as the compound, how does the IC50 (A549) read?
The IC50 was 11200 nM.

And the IC50 (HepG2)?
Its IC50 is 10900 nM.

And the IC50 (HMEC)?
The IC50 was 2440 nM.

And the IC50 (PC-3M)?
Its IC50 is 2520 nM.

And the IC50 (MCF7)?
The IC50 was 89100 nM.

Which results are given for `COc1cc([C@@H]2c3cc4c(cc3[C@H](OC(=O)[C@H](CCSC)NC(=O)OC(C)(C)C)[C@H]3COC(=O)[C@H]23)OCO4)cc(OC)c1OC`?
IC50 (A549): 1030 nM; IC50 (HepG2): 51000 nM; IC50 (HMEC): 2600 nM; IC50 (PC-3M): 5.11 nM; IC50 (MCF7): 93100 nM

How did the IC50 (A549) turn out when `COc1cc([C@@H]2c3cc4c(cc3[C@H](OC(=O)c3ccc(Br)s3)[C@H]3COC(=O)[C@H]23)OCO4)cc(OC)c1OC` was run?
The IC50 was 504 nM.

What about the IC50 (HepG2) of the same compound?
The IC50 was 33900 nM.

And the IC50 (HMEC)?
The IC50 was 1770 nM.

What about the IC50 (PC-3M) of the same compound?
The IC50 was 619 nM.

What about the IC50 (MCF7) of the same compound?
Its IC50 is > 200000 nM.
